From ChEMBL document CHEMBL1201862, “PubChem BioAssay data set” (2004)
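Protocol summary: plate cells (96-well), add compound at 5 concentrations, incubate 48 h, interpolate endpoints linearly. GI50 marks 50% less growth.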 The source made the active and inactive calls. No stated cut-off is given here; in the data, active = GI50 up to about 1.1 µM and inactive = higher.

How the values were obtained:
Assay in all cases: NCI-60 cell line screen, 48 h
786-0 = tested on: 786-0
A498 = tested on: A498
A549 = tested on: A549
ACHN = tested on: ACHN
BT-549 = tested on: BT-549
CAKI-1 = tested on: CAKI-1
CCRF-CEM = tested on: CCRF-CEM
COLO 205 = tested on: COLO 205
DU-145 = tested on: DU-145
EKVX = tested on: EKVX
HCC 2998 = tested on: HCC 2998
HCT-116 = tested on: HCT-116
HCT-15 = tested on: HCT-15
HL-60 = tested on: HL-60
HOP-62 = tested on: HOP-62
HOP-92 = tested on: HOP-92
HT-29 = tested on: HT-29
Hs-578T = tested on: Hs-578T
IGROV-1 = tested on: IGROV-1
K562 = tested on: K562
KM12 = tested on: KM12
LOX IMVI = tested on: LOX IMVI
M14 = tested on: M14
MCF7 = tested on: MCF7
MDA-MB-231 = tested on: MDA-MB-231
MDA-MB-435 = tested on: MDA-MB-435
MDA-N = tested on: MDA-N
Malme-3M = tested on: Malme-3M
NCI-H226 = tested on: NCI-H226
NCI-H23 = tested on: NCI-H23
NCI-H460 = tested on: NCI-H460
NCI-H522 = tested on: NCI-H522
NCI/ADR-RES = tested on: NCI/ADR-RES
OVCAR-3 = tested on: OVCAR-3
OVCAR-4 = tested on: OVCAR-4
OVCAR-5 = tested on: OVCAR-5
OVCAR-8 = tested on: OVCAR-8
PC-3 = tested on: PC-3
RPMI-8226 = tested on: RPMI-8226
RXF 393 = tested on: RXF 393
SF-268 = tested on: SF-268
SF-295 = tested on: SF-295
SF-539 = tested on: SF-539
SK-MEL-28 = tested on: SK-MEL-28
SK-MEL-2 = tested on: SK-MEL-2
SK-MEL-5 = tested on: SK-MEL-5
SK-OV-3 = tested on: SK-OV-3
SN12C = tested on: SN12C
SNB-19 = tested on: SNB-19
SNB-75 = tested on: SNB-75
SR = tested on: SR
SW-620 = tested on: SW-620
T47D = tested on: T47D
TK-10 = tested on: TK-10
U-251 = tested on: U-251
UACC-257 = tested on: UACC-257
UACC-62 = tested on: UACC-62
UO-31 = tested on: UO-31
MOLT-4 = tested on: MOLT-4

SMILES: COc1cc(OC)c(C2(c3c(OC(C)C)c(=O)c3=O)SCCCS2)cc1OC
- GI50 (786-0): > 100 µM (inactive)
- GI50 (A498): > 100 µM (inactive)
- GI50 (A549): > 100 µM (inactive)
- GI50 (ACHN): > 100 µM (inactive)
- GI50 (BT-549): > 100 µM (inactive)
- GI50 (CAKI-1): > 100 µM (inactive)
- GI50 (CCRF-CEM): > 100 µM (inactive)
- GI50 (COLO 205): > 100 µM (inactive)
- GI50 (DU-145): > 100 µM (inactive)
- GI50 (EKVX): > 100 µM (inactive)
- GI50 (HCC 2998): > 100 µM (inactive)
- GI50 (HCT-116): > 100 µM (inactive)
- GI50 (HCT-15): > 100 µM
- GI50 (HL-60): > 100 µM (inactive)
- GI50 (HOP-62): > 100 µM (inactive)
- GI50 (HOP-92): > 100 µM (inactive)
- GI50 (HT-29): > 100 µM (inactive)
- GI50 (Hs-578T): > 100 µM (inactive)
- GI50 (IGROV-1): > 100 µM (inactive)
- GI50 (K562): > 100 µM (inactive)
- GI50 (KM12): > 100 µM (inactive)
- GI50 (LOX IMVI): > 100 µM (inactive)
- GI50 (M14): > 100 µM (inactive)
- GI50 (MCF7): > 100 µM (inactive)
- GI50 (MDA-MB-231): > 100 µM (inactive)
- GI50 (MDA-MB-435): > 100 µM (inactive)
- GI50 (MDA-N): > 100 µM (inactive)
- GI50 (Malme-3M): > 100 µM (inactive)
- GI50 (NCI-H226): > 100 µM (inactive)
- GI50 (NCI-H23): > 100 µM (inactive)
- GI50 (NCI-H460): > 100 µM (inactive)
- GI50 (NCI-H522): > 100 µM (inactive)
- GI50 (NCI/ADR-RES): > 100 µM (inactive)
- GI50 (OVCAR-3): > 100 µM (inactive)
- GI50 (OVCAR-4): > 100 µM (inactive)
- GI50 (OVCAR-5): > 100 µM (inactive)
- GI50 (OVCAR-8): > 100 µM (inactive)
- GI50 (PC-3): > 100 µM (inactive)
- GI50 (RPMI-8226): > 100 µM (inactive)
- GI50 (RXF 393): > 100 µM (inactive)
- GI50 (SF-268): > 100 µM (inactive)
- GI50 (SF-295): > 100 µM (inactive)
- GI50 (SF-539): > 100 µM (inactive)
- GI50 (SK-MEL-28): > 100 µM (inactive)
- GI50 (SK-MEL-2): > 100 µM (inactive)
- GI50 (SK-MEL-5): > 100 µM (inactive)
- GI50 (SK-OV-3): > 100 µM (inactive)
- GI50 (SN12C): > 100 µM (inactive)
- GI50 (SNB-19): > 100 µM (inactive)
- GI50 (SNB-75): > 100 µM (inactive)
- GI50 (SR): > 100 µM (inactive)
- GI50 (SW-620): > 100 µM (inactive)
- GI50 (T47D): > 100 µM (inactive)
- GI50 (TK-10): > 100 µM (inactive)
- GI50 (U-251): > 100 µM (inactive)
- GI50 (UACC-257): > 100 µM (inactive)
- GI50 (UACC-62): > 100 µM (inactive)
- GI50 (UO-31): > 100 µM (inactive)

SMILES: COc1cc2c(cc1OC)C(C1CC1)ON(C)CC2 (stereo unspecified)
- GI50 (786-0): > 100 µM (inactive)
- GI50 (A498): > 100 µM (inactive)
- GI50 (A549): > 100 µM (inactive)
- GI50 (ACHN): > 100 µM (inactive)
- GI50 (BT-549): > 100 µM (inactive)
- GI50 (CAKI-1): > 100 µM (inactive)
- GI50 (CCRF-CEM): > 100 µM (inactive)
- GI50 (COLO 205): > 100 µM (inactive)
- GI50 (DU-145): > 100 µM (inactive)
- GI50 (EKVX): 58.7 µM (inactive)
- GI50 (HCC 2998): > 100 µM (inactive)
- GI50 (HCT-116): > 100 µM (inactive)
- GI50 (HCT-15): > 100 µM
- GI50 (HL-60): > 100 µM (inactive)
- GI50 (HOP-62): > 100 µM (inactive)
- GI50 (HOP-92): > 100 µM (inactive)
- GI50 (HT-29): > 100 µM (inactive)
- GI50 (Hs-578T): > 100 µM (inactive)
- GI50 (IGROV-1): > 100 µM (inactive)
- GI50 (K562): > 100 µM (inactive)
- GI50 (KM12): > 100 µM (inactive)
- GI50 (LOX IMVI): > 100 µM (inactive)
- GI50 (M14): > 100 µM (inactive)
- GI50 (MCF7): > 100 µM (inactive)
- GI50 (MDA-MB-231): > 100 µM (inactive)
- GI50 (MDA-MB-435): > 100 µM (inactive)
- GI50 (MDA-N): > 100 µM (inactive)
- GI50 (MOLT-4): > 100 µM (inactive)
- GI50 (Malme-3M): > 100 µM (inactive)
- GI50 (NCI-H226): > 100 µM (inactive)
- GI50 (NCI-H23): > 100 µM (inactive)
- GI50 (NCI-H460): > 100 µM (inactive)
- GI50 (NCI-H522): > 100 µM (inactive)
- GI50 (NCI/ADR-RES): > 100 µM (inactive)
- GI50 (OVCAR-3): > 100 µM (inactive)
- GI50 (OVCAR-4): > 100 µM (inactive)
- GI50 (OVCAR-5): > 100 µM (inactive)
- GI50 (OVCAR-8): > 100 µM (inactive)
- GI50 (PC-3): > 100 µM (inactive)
- GI50 (RPMI-8226): > 100 µM (inactive)
- GI50 (RXF 393): > 100 µM (inactive)
- GI50 (SF-268): > 100 µM (inactive)
- GI50 (SF-295): > 100 µM (inactive)
- GI50 (SF-539): > 100 µM (inactive)
- GI50 (SK-MEL-28): > 100 µM (inactive)
- GI50 (SK-MEL-2): > 100 µM (inactive)
- GI50 (SK-MEL-5): > 100 µM (inactive)
- GI50 (SN12C): > 100 µM (inactive)
- GI50 (SNB-19): > 100 µM (inactive)
- GI50 (SNB-75): > 100 µM (inactive)
- GI50 (SR): > 100 µM (inactive)
- GI50 (SW-620): > 100 µM (inactive)
- GI50 (T47D): > 100 µM (inactive)
- GI50 (TK-10): > 100 µM (inactive)
- GI50 (U-251): > 100 µM (inactive)
- GI50 (UACC-257): > 100 µM (inactive)
- GI50 (UACC-62): > 100 µM (inactive)
- GI50 (UO-31): > 100 µM (inactive)
